Measurements from patent EP0877031A1, “TGF-Beta1 derived peptides mimicking the activity of transforming growth factor-Beta1” (INSTITUUT VOOR DIERHOUDERIJ EN DIERGEZONDHEID (ID-DLO), priority 1997, dated 1998).

How the values were obtained:
[1] = system: Mink lung epithelial cells (Mv 1 Lu); assay: Mv 1 Lu growth inhibition assay for agonistic TGF activity (peptides alone, acid phosphatase readout); type: cell-based; details: peptide alone, 5 days of incubation, acid phosphatase activity as marker for cell growth
Protocol: (§1) An assay for TGF-β1 biological activity, bases on Mink lung epithelial cells (Mv 1 Lu), was used for analysis of the biological activity of peptides derived from the human TGF-β1 primary sequence. This assay is based on growth inhibition of Mv 1 Lu cells in presence of TGF-β1. Inhihition of Mv 1 Lu growth is quantified by acid phosphatase activity as a marker for cell growth.
(§2) Mink lung epithelial cells (Mv 1 Lu) were plated in 96-well tissue culture plates (Costar, Cambridge, MA) at 100 cells/well in 100 µl Eagle's MEM supplemented with 20IE/ml penicillin, 1 mg/ml streptomycin, 0.4 mM L-glutamine, 10 mM HEPES and 10% FCS (HyClone, Logan, UT). Plates were incubated at 37°C and 5% CO2 in a humidified incubator for 1.5 h to allow cell attachment. After cell attachment peptides were added in a volume of 50 µl in Eagle's MEM supplemented with 20IE/ml penicillin, 1 mg/ml streptomycin, 0.4 mM L-glutamine, 10 mM HEPES and 10% FCS and titrated with eight threefold dilutions of peptide. The cells were subsequently incubated for 5 days at 37°C and 5% CO2 in a humidified incubator. After incubation cell growth was monitored using acid phosphatase activity as a marker: The plates were washed twice with 200 µl PBS per well and 100 µl of substrate solution (0.1 M sodium acetate, 0,1% Triton X-100, 3.7 mg/ml p-nitrophenyl phosphate, pH 5.5) were added to each well. The plates were then incubated for 1.5 h at 37°C, after which 25 µl of 0.4 M NaOH were added to each well. Acid phosphatase activity was detected by measuring the OD of the substrate solution using an microplate reader at 405 nm.
In this example, all peptides comprising 12 amino acids prepared as described under the head "Peptide synthesis", were tested in the Mv 1 Lu growth inhibition assay. In this assay peptides were titrated in eight threefold dilutions, starting with a peptide quantity of 10-100 µg per well. After 5 days of incubation the wells were tested for acid phosphatase activity.

[2] = system: Mink lung epithelial cells (Mv 1 Lu); assay: Mv 1 Lu growth inhibition assay, preincubation with peptides followed by a suboptimal quantity of TGF-β1; type: cell-based; details: 4 h preincubation with peptide, then suboptimal 3.3 x 10^-3 µM TGF-β1, 5 days of incubation
Protocol: as §1, §2
In this example Mv 1 Lu cells were preincubated with TGF-β1 derived peptides which were titrated in eight threefold dilutions, starting with a peptide quantity of 10-100 µg per well. After 4 h of preincubation a suboptimal quantity of 3.3 x 10^-3 µM TGF-β1. The TGF-β1 (R&D systems, M1) Porcine TGF-β1 is 100% homologue to humam TGF-β1 (Roberts et al. in Handbook of Experimental Pharmacology, Editors Sporn, M.B.; Robers A.B.; Springer Verlag Heidelberg (1990), 95, 419) was added. After 5 days of incubation the wells were tested for acid phosphatase activity.

CCVRQLYIDFRK
growth inhibition of mink lung epithelial cells (TGF agonist activity) [1]: inhibited the growth of mink lung epithelial cells in a similar way as TGF-β1 does
enhanced inhibition of the growth of mink lung epithelial cells when combined with TGF-β1 (synergistic effect) [2]: enhanced inhibition of the growth of the mink lung epithelial cells

CFSSTEKNCCVR
growth inhibition of mink lung epithelial cells (TGF agonist activity) [1]: inhibited the growth of mink lung epithelial cells in a similar way as TGF-β1 does

EKNCCVRQLYID
growth inhibition of mink lung epithelial cells (TGF agonist activity) [1]: inhibited the growth of mink lung epithelial cells in a similar way as TGF-β1 does

FSSTEKNCCVRQ
growth inhibition of mink lung epithelial cells (TGF agonist activity) [1]: inhibited the growth of mink lung epithelial cells in a similar way as TGF-β1 does

HNPGASAAPCCV
enhanced inhibition of the growth of mink lung epithelial cells when combined with TGF-β1 (synergistic effect) [2]: enhanced inhibition of the growth of the mink lung epithelial cells

KNCCVRQLYIDF
enhanced inhibition of the growth of mink lung epithelial cells when combined with TGF-β1 (synergistic effect) [2]: enhanced inhibition of the growth of the mink lung epithelial cells

LSNMIVRSCKCS
growth inhibition of mink lung epithelial cells (TGF agonist activity) [1]: inhibited the growth of mink lung epithelial cells in a similar way as TGF-β1 does
enhanced inhibition of the growth of mink lung epithelial cells when combined with TGF-β1 (synergistic effect) [2]: enhanced inhibition of the growth of the mink lung epithelial cells

NCCVRQLYIDFR
growth inhibition of mink lung epithelial cells (TGF agonist activity) [1]: inhibited the growth of mink lung epithelial cells in a similar way as TGF-β1 does
enhanced inhibition of the growth of mink lung epithelial cells when combined with TGF-β1 (synergistic effect) [2]: enhanced inhibition of the growth of the mink lung epithelial cells

QHNPGASAAPCC
enhanced inhibition of the growth of mink lung epithelial cells when combined with TGF-β1 (synergistic effect) [2]: enhanced inhibition of the growth of the mink lung epithelial cells
